Source: ChEMBL document CHEMBL1156033, “Discovery of the imidazo[1,5-a][1,2,4]-triazolo[1,5-d][1,4]benzodiazepine scaffold as a novel, potent and selective GABA(A) alpha5 inverse agonist series” (Bioorg Med Chem Lett, 2009)
Values after ≈ are worked out from the molar mass of the structure shown. Active and inactive are the calls of the source. No cut-off for these calls is given here.

Tests used:
[1] = target: T1, GABA-A receptor; alpha-5/beta-3/gamma-2 (Homo sapiens, UniProt P18507+P28472+P31644)
T1 sequence (P18507 whole entry): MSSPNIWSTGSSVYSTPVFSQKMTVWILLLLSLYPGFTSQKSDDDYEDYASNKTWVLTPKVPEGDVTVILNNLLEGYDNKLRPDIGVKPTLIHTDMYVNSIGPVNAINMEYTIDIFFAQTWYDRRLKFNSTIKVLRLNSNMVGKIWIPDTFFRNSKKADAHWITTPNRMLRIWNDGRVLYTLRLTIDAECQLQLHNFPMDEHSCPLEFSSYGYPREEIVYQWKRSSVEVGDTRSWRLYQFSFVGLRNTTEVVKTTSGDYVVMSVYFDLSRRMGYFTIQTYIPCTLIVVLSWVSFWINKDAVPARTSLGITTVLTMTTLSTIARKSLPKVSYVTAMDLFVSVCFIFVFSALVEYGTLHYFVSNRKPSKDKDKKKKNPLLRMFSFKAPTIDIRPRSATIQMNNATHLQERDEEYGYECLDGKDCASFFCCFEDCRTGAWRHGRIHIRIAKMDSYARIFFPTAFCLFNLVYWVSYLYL
T1 sequence (P28472 whole entry): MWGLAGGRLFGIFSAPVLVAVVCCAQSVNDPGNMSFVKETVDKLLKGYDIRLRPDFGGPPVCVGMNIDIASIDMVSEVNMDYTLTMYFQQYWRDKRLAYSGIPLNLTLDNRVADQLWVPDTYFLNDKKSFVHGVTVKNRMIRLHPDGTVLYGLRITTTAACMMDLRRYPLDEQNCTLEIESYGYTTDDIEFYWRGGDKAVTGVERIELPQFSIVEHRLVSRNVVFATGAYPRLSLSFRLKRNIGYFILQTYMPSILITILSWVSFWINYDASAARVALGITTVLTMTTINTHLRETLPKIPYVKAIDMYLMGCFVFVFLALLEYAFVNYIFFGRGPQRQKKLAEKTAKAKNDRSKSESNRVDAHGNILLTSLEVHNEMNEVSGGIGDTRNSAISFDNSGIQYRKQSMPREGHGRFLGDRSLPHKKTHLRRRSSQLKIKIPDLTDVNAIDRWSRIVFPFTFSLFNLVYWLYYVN
T1 sequence (P31644 whole entry): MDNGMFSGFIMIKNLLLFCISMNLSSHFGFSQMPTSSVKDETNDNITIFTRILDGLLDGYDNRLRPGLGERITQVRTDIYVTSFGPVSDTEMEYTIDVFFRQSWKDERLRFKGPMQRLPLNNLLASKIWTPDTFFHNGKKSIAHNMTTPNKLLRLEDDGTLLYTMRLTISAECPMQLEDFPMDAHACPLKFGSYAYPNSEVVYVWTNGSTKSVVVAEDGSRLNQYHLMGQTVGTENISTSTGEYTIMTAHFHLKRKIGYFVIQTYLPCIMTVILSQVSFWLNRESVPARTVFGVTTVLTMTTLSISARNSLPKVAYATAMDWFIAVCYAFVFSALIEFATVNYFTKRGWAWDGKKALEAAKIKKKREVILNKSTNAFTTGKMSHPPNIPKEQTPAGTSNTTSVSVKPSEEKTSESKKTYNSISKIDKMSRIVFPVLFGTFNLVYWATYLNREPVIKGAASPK
Description: Binding affinity to GABAA alpha-5-beta-3-gamma-2 receptor

Rattus norvegicus [2] = experiment: Inhibition of scopolamine-induced cognitive deficit in Wistar rat at 3 mg/kg, ip by passive avoidance test; assay type: functional, organism-based; set-up: dose 3 mg/kg
Liver microsomes [3] = settings: human
Description: Clearance in human liver microsomes

physchem [4] = experiment: physchem
physchem [5] = settings: buffer, pH 7.4
Description: Lipophilicity, log Dof the compound at pH 7.4

in vitro = settings: PAMPA
Description: Membrane permeability by PAMPA

Liver microsomes [6] = settings: rat
Description: Clearance in rat liver microsomes

Rattus norvegicus [7] = experiment: Inhibition of scopolamine-induced cognitive deficit in Wistar rat at 100 mg/kg, ip by passive avoidance test; assay type: functional, organism-based; set-up: dose 100 mg/kg

## Cc1ncn2c1Cn1ccnc1-c1cc(Br)ccc1-2
[1]
  Ki: 6.6 nM

## CCOC(=O)c1ncn2c1Cn1c(-c3ccccc3)nnc1-c1cc(OC)ccc1-2
[1]
  Ki: 53.8 nM

## Clc1ncn2c1Cn1nccc1-c1ccccc1-2
[1]
  Ki: 2 nM

## CCOC(=O)c1ncn2c1Cn1ncnc1-c1ccccc1-2
[1]
  Ki: 0.2 nM

## CCOC(=O)c1ncn2c1Cn1cnnc1-c1ccccc1-2
[1]
  Ki: 0.8 nM

## CCOC(=O)c1ncn2c1Cn1cnnc1-c1cc(O)ccc1-2
[1]
  Ki: 0.6 nM

## C#Cc1ccc2c(c1)-c1nncn1Cc1c(Cl)ncn1-2
[1]
  Ki: 33.6 nM

## CCOC(=O)c1ncn2c1Cn1ncnc1-c1cc(OC)ccc1-2
[1]
  Ki: 0.2 nM

## C#Cc1ccc2c(c1)-c1ncnn1Cc1c(C(=O)OCC)ncn1-2
[1]
  Ki: 0.6 nM

## CCOC(=O)c1ncn2c1Cc1cnc(C)nc1-c1cc(F)ccc1-2
[1]
  Ki: 4.6 nM

## CCOC(=O)c1ncn2c1Cn1cnnc1-c1cc(F)ccc1-2
[1]
  Ki: 1.7 nM

## CCOC(=O)c1ncn2c1Cc1cncnc1-c1ccccc1-2
[1]
  Ki: 3.7 nM

## Cc1ncn2c1Cn1c(C)cnc1-c1cc(Br)ccc1-2
[1]
  Ki: 11.7 nM

## CCOC(=O)c1ncn2c1Cn1cnnc1-c1cc(OC)ccc1-2
Rattus norvegicus [2]
  inhibition: Active
[1]
  Ki: 1.4 nM

## CC(C)C(=O)c1ncn2c1Cn1cnnc1-c1cc(Br)ccc1-2
[1]
  Ki: 55.5 nM

## CCOC(=O)c1ncn2c1Cc1cnc(C(C)C)nc1-c1ccccc1-2
[1]
  Ki: 8.9 nM

## Cc1ncn2c1Cn1nccc1-c1ccccc1-2
[1]
  Ki: 3 nM

## Cc1ncc2c(n1)-c1cc(Br)ccc1-n1cnc(Cl)c1C2
[1]
  Ki: 61 nM

## CCOC(=O)c1ncn2c1Cc1cnc(-c3ccccc3)nc1-c1ccccc1-2
[1]
  Ki: 171 nM

## CCOC(=O)c1ncn2c1Cn1cnnc1-c1cc(Cl)ccc1-2
[1]
  Ki: 1.2 nM

## N#Cc1ccc2c(c1)-c1nncn1Cc1c(Cl)ncn1-2
[1]
  Ki: 25.3 nM

## Clc1ncn2c1Cc1cncnc1-c1cc(Br)ccc1-2
[1]
  Ki: 136 nM

## CCOC(=O)c1ncn2c1Cn1cnnc1-c1cc(Br)ccc1-2
[1]
  Ki: 0.6 nM

## CCOc1ncn2c1Cn1nccc1-c1cc(Cl)ccc1-2
[1]
  Ki: 1.4 nM

## CCOC(=O)c1ncn2c1Cn1cnnc1-c1cc(C)ccc1-2
[1]
  Ki: 2.1 nM

## Clc1ncn2c1Cn1cnnc1-c1cc(Br)ccc1-2
[1]
  Ki: 27.4 nM

## CCOC(=O)c1ncn2c1Cc1cnc(C)nc1-c1ccccc1-2
[1]
  Ki: 3.8 nM

## Cc1ncn2c1Cn1cc(CO)nc1-c1cc(Br)ccc1-2
[1]
  Ki: 8.1 nM

## Cc1ncc2c(n1)-c1ccccc1-n1cnc(Cl)c1C2
[1]
  Ki: 15.6 nM

## Cc1cn2c(n1)-c1cc(Br)ccc1-n1cnc(C)c1C2
[1]
  Ki: 119 nM

## CCOC(=O)c1ncn2c1Cn1ncnc1-c1cc(C)ccc1-2
[1]
  Ki: 0.5 nM

## CCOC(=O)c1ncn2c1Cc1cnc(C(C)C)nc1-c1cc(F)ccc1-2
[1]
  Ki: 11.2 nM

## CCOC(=O)c1cn2c(n1)-c1cc(Br)ccc1-n1cnc(C)c1C2
[1]
  Ki: 5.4 nM

## CCOC(=O)c1ncn2c1Cn1ncnc1-c1cc(Br)ccc1-2
[1]
  Ki: 0.3 nM

## Brc1ccc2c(c1)-c1nncn1Cc1c(I)ncn1-2
[1]
  Ki: 7.8 nM

## CCCc1ncc2c(n1)-c1ccccc1-n1cnc(C(=O)OCC)c1C2
[1]
  Ki: 5.5 nM

## C#Cc1ccc2c(c1)-c1nc(C)ncc1Cc1c(C(=O)OCC)ncn1-2
[1]
  Ki: 8.1 nM
Liver microsomes [3]
  CL: 8000 µL/min/mg
Physchem [4]
  solubility: 10 µg/mL (≈ 29 µM)
Physchem [5]
  logD: 2.68
In vitro
  Papp: 2.78 ×10⁻⁶ cm/s

## O=C(c1ncn2c1Cn1nccc1-c1ccccc1-2)C1CC1
[1]
  Ki: 1 nM

## c1ccc2c(c1)-c1ncnn1Cc1cncn1-2
[1]
  Ki: 6.4 nM
Liver microsomes [6]
  CL: 4000 µL/min/mg
Liver microsomes [3]
  CL: 8000 µL/min/mg
Physchem [4]
  solubility: 231 µg/mL (≈ 1030 µM)
Physchem [5]
  logD: 0.73
In vitro
  Papp: 2.87 ×10⁻⁶ cm/s

## CCOC(=O)c1ncn2c1Cc1cncnc1-c1cc(Br)ccc1-2
[1]
  Ki: 20.2 nM

## CCOC(=O)c1ncn2c1Cc1cnc(C3CC3)nc1-c1ccccc1-2
[1]
  Ki: 7.6 nM

## Cc1ncn2c1Cn1cnnc1-c1cc(Br)ccc1-2
[1]
  Ki: 150 nM

## CCOC(=O)c1ncn2c1Cn1ncnc1-c1cc(Cl)ccc1-2
[1]
  Ki: 0.2 nM
Physchem [4]
  solubility: 15 µg/mL (≈ 45.5 µM)
Physchem [5]
  logD: 1.83
In vitro
  Papp: 5.59 ×10⁻⁶ cm/s

## CCOC(=O)c1ncn2c1Cn1c(Cc3ccccc3)nnc1-c1cc(Br)ccc1-2
[1]
  Ki: 19.1 nM

## Cc1ncn2c1Cn1nccc1-c1cc(Br)ccc1-2
[1]
  Ki: 49.1 nM

## CCOC(=O)c1ncn2c1Cc1cnc(Cc3ccc(OC)cc3)nc1-c1ccccc1-2
[1]
  Ki: 12.5 nM

## C#Cc1ncn2c1Cn1cnnc1-c1cc(Br)ccc1-2
[1]
  Ki: 7.8 nM

## CCOC(=O)c1ncn2c1Cn1ncnc1-c1cc(NC(=O)C(C)C)ccc1-2
[1]
  Ki: 6.4 nM

## CCCc1ncc2c(n1)-c1cc(F)ccc1-n1cnc(C(=O)OCC)c1C2
[1]
  Ki: 8 nM

## CCOC(=O)c1ncn2c1Cn1c(C)nnc1-c1cc(OC)ccc1-2
[1]
  Ki: 14.5 nM

## Cc1ncn2c1Cn1cc(CN3CCCC3=O)nc1-c1cc(Br)ccc1-2
[1]
  Ki: 1.6 nM

## C#Cc1ccc2c(c1)-c1nncn1Cc1c(C(=O)OCC)ncn1-2
[1]
  Ki: 2.3 nM

## CCOC(=O)c1ncn2c1Cn1ncnc1-c1cc(C3CC3)ccc1-2
[1]
  Ki: 0.6 nM

## c1ccc2c(c1)-c1ncncc1Cc1cncn1-2
[1]
  Ki: 410 nM

## C#Cc1ccc2c(c1)-c1nc(C)ncc1Cc1c(Cl)ncn1-2
[1]
  Ki: 133 nM

## CCOC(=O)c1ncn2c1Cc1cnc(C3CC3)nc1-c1cc(F)ccc1-2
[1]
  Ki: 7.8 nM

## CCOC(=O)c1ncn2c1Cn1ncnc1-c1cc(OC(F)(F)F)ccc1-2
[1]
  Ki: 0.8 nM

## CCOC(=O)c1ncn2c1Cc1cnc(C)nc1-c1cc(Br)ccc1-2
Rattus norvegicus [7]
  inhibition: Active
[1]
  Ki: 12.5 nM
Liver microsomes [3]
  CL: 4000 µL/min/mg
Physchem [4]
  solubility: 20 µg/mL (≈ 50.1 µM)
Physchem [5]
  logD: 2.68
In vitro
  Papp: 3.6 ×10⁻⁶ cm/s

## CCOc1ncn2c1Cn1nccc1-c1ccccc1-2
[1]
  Ki: 0.2 nM

## Clc1ncn2c1Cc1cncnc1-c1ccccc1-2
[1]
  Ki: 15.6 nM

## CCOC(=O)c1ncn2c1Cn1c(Cc3ccccc3)nnc1-c1cc(OC)ccc1-2
[1]
  Ki: 22.9 nM
